Results published in US8293274B2, “Intestinal absorptive anti-tumor agent” (Kabushiki Kaisha Sangi, priority 2005, dated 2012).
Where a name gives a salt, the structure may show the parent alone. Values belong to the compound of their own block, whether it stands above or below them.

Test: Intestinal absorption test of various antitumor agents (plasma concentration by gas/liquid chromatography)
Protocol: Rats were fasted for 16 hours and then forced oral administration to the stomach was performed using an oral gastric tube for rats.
Blood was collected from the tail vein prior to administration and 15 and 30 minutes, 1, 2, 3, 4, 6, 8 and 24 hours after administration. The collected blood was centrifuged at 4° C. for 15 minutes at 3,000 rpm to obtain plasma, and then the plasma concentrations of the various antitumor agents were measured.
These concentrations were measured using gas chromatography and liquid chromatography.

[1] = male, Sprague-Dawley, rat, in vivo, po, 50 mg/kg
[2] = male, Sprague-Dawley, rat, in vivo, po, 0.2 mg/kg
[3] = bleomycin hydrochloride in plasma, rats fasted 16 hours, oral, 2.0 mg/kg

Compound: O=P1(NCCCl)OCCCN1CCCl (stereo not drawn) [Comparative Test Example 4-2, ifosfamide]
- AUC(0-t) [1]: 1240 ng·h/mL
- Cmax [1]: 250 ng/mL
- Tmax [1]: 45 min

- AUC(0-t) [2]: 1110 ng·h/mL
- Cmax [2]: 90 ng/mL
- Tmax [2]: 49.8 min
Compound: CC[C@]1(O)C[C@H]2CN(CCc3c([nH]c4ccccc34)[C@@](C(=O)OC)(c3cc4c(cc3OC)N(C=O)[C@H]3[C@@](O)(C(=O)OC)[C@H](OC(C)=O)[C@]5(CC)C=CCN6CC[C@]43[C@@H]65)C2)C1 [Comparative Test Example 4-4, vincristine sulfate]

Compound: bleomycin hydrochloride [Comparative Test Example 4-3]
- AUC0-24 h [3]: 520 ng·h/mL
- Cmax [3]: 120 ng/mL
- Tmax [3]: 85.2 min
